Reference: patent US20240390338A1, “METHODS FOR TREATING NEUROGENERATIVE DISEASES” (PTC THERAPEUTICS, INC., priority 2021, published 2024)

Test system: MAPT 3R mRNA
Test: RT-qPCR Assay to Quantify MAPT 3R mRNA in Cells
Type: cell-based
Set-up: key to EC2X: An EC2X value ≥3000 nM is indicated by “inactive.”; An EC2X value between >1500 nM and ≤3000 nM is indicated by one star (*); An EC2X value between >1000 nM and ≤1500 nM is indicated by two stars (**); An EC2X value between >500 nM and ≤1000 nM is indicated by three stars (***); An EC2X value between >50 nM and ≤500 nM is indicated by four stars (****); An EC2X value ≤50 nM is indicated by five stars (*****)
Settings: cells incubated with compound 24 h; 7-point concentration curve; MAPT minigene 3R RT-qPCR with GAPDH assay; EC2X interpolated from dose response curve
Protocol: RT-qPCR Assay to Quantify MAPT 3R mRNA in Cells
Test compounds were serially diluted 3.16-fold in 100% DMSO to generate a 7-point concentration curve. Aliquots of 0.5 μL of diluted compounds were transferred to a 96-well flat bottom plate by a liquid handler. An aliquot of 0.5 μL DMSO was also transferred to separate wells and used as controls. Duplicate samples were set up for each compound concentration and for the DMSO control.
Cells were thawed and incubated in cell culture media (DMEM, 10% FBS, and 1% antibiotic cocktail) for 72 h. Cells were trypsinized, counted, and re-suspended to a concentration of 200,000 cells/mL in cell culture media. A 100 μL aliquot of the cell suspensions were plated at 20,000 cells per well in the compound containing 96 well microtiter plate and incubated for in a cell culture incubator (37° C., 5% CO2, 100% relative humidity).
After 24 h, media was aspirated from the cells and 20 μL of the RCL2 lysis buffer (10 mM Tris-HCL pH 7.4, 150 mM NaCl, 0.33% IGEPAL® CA-630) was added to each well and incubated at RT for 1 min. Chilled nuclease free water (140 μL per well) was added and the plates were immediately transferred on ice. After 1 min on ice, plates were frozen at −80° C. overnight.
Preparation of RT-qPCR Reaction Mixture:
An aliquot of 4 μL/well of the cell lysates was transferred using the liquid handler to the Armadillo 384-Well PCR plate containing 6 μL/well of the RT-qPCR reaction mixture that was prepared as detailed above. The plates were then sealed with MicroAmp™ Optical Adhesive Film followed by spinning down for 1 min and placed in the CFX384 thermocycler (BioRad).
The RT-qPCR was carried out at the following temperatures for the indicated time: • Step 1: 48° C. (30 min) • Step 2: 95° C. (10 min) • Step 3: 95° C. (15 sec) • Step 4: 60° C. (1 min); then, repeated Steps 3 and 4 for a total of 40 cycles.
The percent exon 4 skipping was calculated for each dose of compound treatment using Equations 1 and 2.
Data were fit to a dose response curve and the EC2X was interpolated using XLfit® statistical and curve fitting package.
An EC2X value between >1000 nM and ≤1500 nM is indicated by two stars (**). An EC2X value between >500 nM and ≤1000 nM is indicated by three stars (***). An EC2X value between >50 nM and ≤500 nM is indicated by four stars (****). An EC2X value ≤50 nM is indicated by five stars (*****).

Row | SMILES | EC (2-fold increase) [µM] | EC2X
1 | C[C@H](F)[C@H](N)Cc1sc2c(NCc3nccs3)cc(Cl)nc2c1Br [Cpd 125, 2-[(2R,3S)-2-amino-3-fluorobutyl]-3-bromo-5-chloro-N-[(1,3-thiazol-2-yl)methyl]thieno[3,2-b]pyridin-7-amine] | ≤ 0.05 | –
2 | Cc1c(C[C@@H](N)[C@H](C)F)sc2c(NCc3cccs3)cc(Cl)nc12 [Cpd 126, 2-[(2R,3S)-2-amino-3-fluorobutyl]-5-chloro-3-methyl-N-[(thiophen-2-yl)methyl]thieno[3,2-b]pyridin-7-amine] | ≤ 0.05 | –
3 | Cc1c(C[C@@H](N)[C@H](C)F)sc2c(NCc3nccs3)cc(Cl)nc12 [Cpd 128, 2-[(2R,3S)-2-amino-3-fluorobutyl]-5-chloro-3-methyl-N-[(1,3-thiazol-2-yl)methyl]thieno[3,2-b]pyridin-7-amine] | ≤ 0.05 | –
4 | C[C@H](N)C(F)(F)c1sc2c(NCc3cccs3)cc(Cl)nc2c1Cl [Cpd 132, 2-[(2S)-2-amino-1,1-difluoropropyl]-3,5-dichloro-N-[(thiophen-2-yl)methyl]thieno[3,2-b]pyridin-7-amine] | 0.05 to 0.5 | –
5 | Cc1c(C[C@@H](N)C(=O)Nc2cnccn2)sc2c(NCc3ccco3)cc(Cl)nc12 [Cpd 135, 3-(5-chloro-7-{[(furan-2-yl)methyl]amino}-3-methylthieno[3,2-b]pyridin-2-yl)-N-pyrazin-2-yl-D-alaninamide] | 0.05 to 0.5 | –
6 | Cc1c(C[C@@H](N)C(=O)Nc2ccncc2)sc2c(NCc3ccco3)cc(Cl)nc12 [Cpd 140, 3-(5-chloro-7-{[(furan-2-yl)methyl]amino}-3-methylthieno[3,2-b]pyridin-2-yl)-N-pyridin-4-yl-D-alaninamide] | 0.05 to 0.5 | –
7 | Cc1c([C@@H](C)[C@H](C)N)sc2c(NCc3ccco3)cc(Cl)nc12 [Cpd 151, 2-[(2S,3S)-3-aminobutan-2-yl]-5-chloro-N-[(furan-2-yl)methyl]-3-methylthieno[3,2-b]pyridin-7-amine] | – | inactive
8 | C[C@H](N)C(F)c1sc2c(NCc3ccco3)cc(Cl)nc2c1Br (stereo partly drawn) [Cpd 154, 2-[(2S)-2-amino-1-fluoropropyl]-3-bromo-5-chloro-N-[(furan-2-yl)methyl]thieno[3,2-b]pyridin-7-amine] | ≤ 0.05 | –
9 | C[C@H](N)C(F)c1sc2c(NCc3cccs3)cc(Cl)nc2c1Br (stereo partly drawn) [Cpd 158, 2-[(2S)-2-amino-1-fluoropropyl]-3-bromo-5-chloro-N-[(thiophen-2-yl)methyl]thieno[3,2-b]pyridin-7-amine] | ≤ 0.05 | –
10 | C[C@@H](O)[C@H](N)Cc1sc2c(NCc3ccco3)cc(Cl)nc2c1Br [Cpd 165, (2R,3R)-3-amino-4-(3-bromo-5-chloro-7-{[(furan-2-yl)methyl]amino}thieno[3,2-b]pyridin-2-yl)butan-2-ol] | ≤ 0.05 | –
11 | C#C[C@H](N)Cc1sc2c(NCc3ccco3)cc(Cl)nc2c1Cl [Cpd 166, 2-[(2R)-2-aminobut-3-yn-1-yl]-3,5-dichloro-N-[(furan-2-yl)methyl]thieno[3,2-b]pyridin-7-amine] | 0.05 to 0.5 | –
